Results from patent publication US5068064A, “N-substituted lauramides, their preparation and compositions in which they are present” (Sanofi, priority 1989, dated 1991).
Values after ≈ are worked out from the molar mass of the structure shown.

How the values were obtained:
[1] = system: Staphylococcus aureus CIP 53154; test: Minimum bactericidal concentration, first method (30 min contact), S. aureus; assay type: cell-based; conditions: CIP53154, 0.5 h, contact time 30 minutes
From the text: (§1) In the two methods, a bacterial inoculum is brought into contact with different dilutions of the product for a determined period of time.
(§2) When the contact period has ended, an aliquot of the mixture of bacterial suspension and product is taken and brought into contact with an agent for neutralizing the bacterial activity of the mixture, either in a solid medium or in a liquid medium. The bactericidal activity of the product, expressed either as a concentration or as a percentage of active principle, corresponds to an absence of bacterial growth.
(§3) The first method makes it possible to define a minimum bactericidal concentration (MBC) or minimum fungicidal concentration (MFC), expressed in μg/ml. The contact time between product and bacterial suspension is 30 minutes. The neutralizer is included in agar.
(§4) The CIP bacterial strains chosen for the study, which are available from the Institut Pasteur, are:
(§5) 1. Staphylococcus aureus
(§6) The strains are maintained on Tryptic Soy Agar® (TSA) marketed by Difco.
(§7) After 24 hours of culture at 37° C., the microbial growth is harvested with the aid of glass beads and 10 ml of diluent containing 1 g of tryptone and 8.5 g of sodium chloride in 1000 ml of distilled water. The suspension formed is shaken and the percentage transmission of light at 620 nm is measured in a spectrophotometer:
(§8) The bacterial inoculum corresponds to a 1:20 dilution of this bacterial suspension.
(§9) Plates containing cupules receive different dilutions of the test product. These dilutions of the test product are brought into contact with the different bacterial suspensions using a multiple site inoculator. After a contact time of 30 minutes, aliquots are transferred with this inoculator to the surface of an agar medium (TSA) placed in Petri dishes containing an activity neutralizer, namely 20 g of lubrol W, 2.5 g of Tween 80, 2.5 g of sodium thiosulfate and 1% of egg yolk in 1000 ml of TSA (Difco). A control for the efficacy of the neutralizer is prepared for each test product by depositing an aliquot of the dilution of the test product on the surface of the culture medium. After drying, the corresponding inoculum is deposited in the same place. An inoculum control is prepared on agar medium with and without neutralizer. The results are read off after 48 hours of incubation at 37° C.
(§10) They indicate the minimum bactericidal concentrations (MBC) for strains 1, 2, 3 and 4 and the minimum fungicidal concentrations (MFC) for strain 5.

[2] = system: Enterococcus faecium CIP 5855; test: Minimum bactericidal concentration, first method (30 min contact), E. faecium; assay type: cell-based; conditions: CIP5855, 0.5 h, contact time 30 minutes
From the text: as §1, §2, §3, §4, §6, §7, §8, §9, §10

[3] = system: Escherichia coli CIP 54127; test: Minimum bactericidal concentration, first method (30 min contact), E. coli; assay type: cell-based; conditions: CIP54127, 0.5 h, contact time 30 minutes
From the text: as §1, §2, §3, §4
(§11) 3. Escherichia coli CIP 54127
as §6, §7, §8, §9, §10

[4] = system: Pseudomonas aeruginosa CIP A22; test: Minimum bactericidal concentration, first method (30 min contact), P. aeruginosa; assay type: cell-based; conditions: CIPA22, 0.5 h, contact time 30 minutes
From the text: as §1, §2, §3, §4
4. Psuedomonas aeruginosa
as §6, §7, §8, §9, §10

[5] = system: Candida albicans CIP 1180; test: Minimum fungicidal concentration, first method (30 min contact), C. albicans; assay type: cell-based; conditions: CIP1180, 0.5 h, contact time 30 minutes
From the text: as §1, §2, §3, §9
The antifungal activity of the products according to the invention was also determined using the method described above. A representative strain of yeast was selected for the study: Candida albicans CIP 1180 (strain 5).
This is maintained on Sabouraud's Dextrose Agar marketed by Difco. The technique is identical to that described for studying the antibacterial activity. After 48 hours of culture at 37° C., the microbial growth is harvested with the aid of glass beads and 5 ml of diluent containing 1 g of tryptone and 8.5 g of sodium chloride in 1000 ml of distilled water; a further 5 ml of the diluent are then added. This suspension gives a percentage transmission of light at 620 nm of 2 to 3% in a spectrophotometer.
The inoculum corresponds to a 1:10 dilution of this microbial suspension. A 1:100 dilution of this suspension, observed between slide and cover glass through a No. 40 microscope objective, must show 10 cells per field, which corresponds to 1,000,000 yeasts per ml.
as §10

[6] = system: Staphylococcus aureus CIP 53154; test: Percentage of bactericidal active principle, second method (5 min contact), S. aureus; assay type: cell-based; conditions: destruction of 99.99%
From the text: as §1, §2
(§12) The second method makes it possible to define a percentage of bactericidal or fungicidal active principle by means of a simplified and automated adaptation of Afnor standards NF T 72-150 and NF T 72-170. In this method, the bactericidal activity of the product is determined with and without interfering substances. It is based on assessing the destruction of 99.99% of the initial bacteria by the product in 5 minutes. The interfering substances are of the protein type and are chosen for the actual conditions of application of this type of product. The contact time between product and bacterial suspension is 5 minutes, the neutralization step is 10 minutes and subculture is effected in a liquid medium.
(§13) The chosen bacterial strains are:
as §5, §6
(§14) The strains are harvested in a manner identical to the first method; these suspensions contain between 1.10^8 and 3.10^8 cells per milliliter. Appropriate dilutions make it possible to have a suspension containing 2 to 6.10^3 cells per milliliter.
(§15) The experiment is performed in microtiter plates; it comprises two steps. The first step, called the preliminary test, checks that the product is indeed neutralized. In the test proper, the different dilutions of the product are brought into contact with 2 to 6.10^3 cells per milliliter of the bacterial suspension in the second row of the microtiter plate. After a contact time of 5 minutes, an aliquot is transferred to the third row containing the neutralizer adapted to the product and to the strain. After a contact time of 10 minutes, aliquots are transferred to the last 5 rows containing Tryptic Soy Broth® (TSB) from Difco.
(§16) The interfering substances tested are a mixture of albumin and yeast extract. In the first row of the microplate, these proteins are brought into contact for 5 minutes with the different dilutions of the product. After this step, the same principle as above is applied: 5 minutes of contact with the germ, 10 minutes of contact with the neutralizer, transfer to TSB.

[7] = system: Enterococcus faecium CIP 5855; test: Percentage of bactericidal active principle, second method (5 min contact), E. faecium; assay type: cell-based; conditions: destruction of 99.99%
From the text: as §1, §2, §12, §13, §6, §14, §15, §16

[8] = system: Escherichia coli CIP 54127; test: Percentage of bactericidal active principle, second method (5 min contact), E. coli; assay type: cell-based; conditions: destruction of 99.99%
From the text: as §1, §2, §12, §13, §11, §6, §14, §15, §16

[9] = system: Pseudomonas aeruginosa CIP A22; test: Percentage of bactericidal active principle, second method (5 min contact), P. aeruginosa; assay type: cell-based; conditions: destruction of 99.99%
From the text: as §1, §2, §12, §13
4. Pseudomonas aeruginosa
as §6, §14, §15, §16

[10] = system: Candida albicans CIP 1180; test: Percentage of fungicidal active principle, second method (5 min contact), C. albicans; assay type: cell-based
From the text: as §1, §2, §12, §15, §16
The antifungal activity of the products according to the invention was also determined with and without interfering substances using the method described above. The same strain was used as for the first technique, namely Candida albicans CIP 1180. It is harvested in an identical manner to that described in the first method.

[11] = system: Mycobacterium smegmatis CIP 7326; test: Percentage of bactericidal active principle, second method (5 min contact), M. smegmatis; assay type: cell-based; conditions: destruction of 99.99%
From the text: as §1, §2, §12, §13
5. Mycobacterium smegmatis
as §6, §14, §15, §16

[12] = system: S. aureus, E. faecium, E. coli, P. aeruginosa, C. albicans; test: First method, bactericidal and fungicidal activity over all strains (Table II); assay type: cell-based; conditions: contact time 30 minutes
From the text: as §1, §2, §3
Plates containing cupules receive different dilutions of the test product. These dilutions of the test product are brought into contact with the different bacterial suspensions using a multiple site inoculator. […] The results are read off after 48 hours of incubation at 37° C.
The antifungal activity of the products according to the invention was also determined using the method described above. […]

Product solubility = conditions: in TEG (tetraethylene glycol)
[13] = Simple: without interfering substances, * activity limited to the zone indicated
[14] = with proteins as interfering substances
[15] = Simple: without interfering substances

Product solubility (Product solubility)	SMILES	MBC [1]	MBC [2]	MBC [3]	MBC [4]	MFC [5]	Bactericidal activity, results in percentage of active principle, S. aureus [6, 13]	Bactericidal activity, results in percentage of active principle, S. aureus [6, 14]	Bactericidal activity, results in percentage of active principle, E. faecium [7, 15]	Bactericidal activity, results in percentage of active principle, E. faecium [7, 14]	Bactericidal activity, results in percentage of active principle, E. coli [8, 15]	Bactericidal activity, results in percentage of active principle, E. coli [8, 14]	Bactericidal activity, results in percentage of active principle, P. aeruginosa [9, 15]	Bactericidal activity, results in percentage of active principle, P. aeruginosa [9, 14]	Fungicidal activity, results in percentage of active principle, C. albicans [10, 15]	Fungicidal activity, results in percentage of active principle, C. albicans [10, 14]	Bactericidal activity, results in percentage of active principle, M. smegmatis [11, 13]	Bactericidal activity, results in percentage of active principle, M. smegmatis [11, 14]	Ranking of MBC and MFC among the products [12]
	CCCCCCCCCCCC(=O)NCCN1CCC(Cc2ccccc2)CC1.Cl [SR 44944 A, N-[2-(4-Benzylpiperidino)ethyl]lauramide hydrochloride]	10 µg/mL	10 µg/mL	10 µg/mL	50 µg/mL	10 µg/mL	< 0.01 percentage of active principle	0.1 percentage of active principle	< 0.01 percentage of active principle	0.03 percentage of active principle	0.01 percentage of active principle	< 0.01 percentage of active principle	< 0.01 percentage of active principle	0.25 percentage of active principle	0.01 percentage of active principle	0.06 percentage of active principle	> 0.5 percentage of active principle	0.06 percentage of active principle	
1%	CCCCCCCCCCCC(=O)NCCCN1CCC(Cc2ccccc2)CC1 [SR 45320 A]	10 µg/mL (≈ 24.1 µM)	10 µg/mL (≈ 24.1 µM)	10 µg/mL (≈ 24.1 µM)	10 µg/mL (≈ 24.1 µM)	10 µg/mL (≈ 24.1 µM)	0.005 percentage of active principle	0.05 percentage of active principle	< 0.001 percentage of active principle	0.1 percentage of active principle	0.01 percentage of active principle	0.05 percentage of active principle	0.005 percentage of active principle	> 0.5 percentage of active principle	0.005 percentage of active principle	0.05 percentage of active principle		0.05 percentage of active principle	lowest MBC and MFC
